Laboratory results published in ChEMBL document CHEMBL5726044, “Imidazopyridazines as Akt kinase inhibitors” (2017).
pIC50: −log10 of the molar value.

Assays:
[1] = target: RAC-beta serine/threonine-protein kinase (Homo sapiens, UniProt P31751); assay: Kinase Assay: His-tagged human recombinant kinase full-length Akt2 expressed in insect cells and activated by PDK1 was purchased form Invitrogen (part number PV 3975). As substrate for the kinase reaction the biotinylated peptide biotin-Ahx-[…] (C-terminus in amide form) was used which can be purchased e.g. from the company Biosynthan GmbH (Berlin-Buch, Germany). For the assay 50 nl of a 100 fold concentrated solution of the test compound in DMSO was pipetted into a black low volume 384 well microtiter plate (Greiner Bio-One, Frickenhausen, Germany), 2 μl of a solution of Akt2 in assay buffer [50 mM TRIS/HCl pH 7.5, 5 mM MgCl2, 1 mM dithiothreitol, 0.02% (v/v) Triton X-100 (Sigma)] were added and the mixture was incubated for 15 min at 22° C. to allow pre-binding of the test compounds to the enzyme before the start of the kinase reaction. Then the kinase reaction was started by the addition of 3 μl of a solution of adenosine-tri-phosphate (ATP, 16.7 μM=>final conc. in the 5 μl assay volume is 10 μM) and substrate (1.67 μM=>final conc. in the 5 μl assay volume is 1 μM) in assay buffer and the resulting mixture was incubated for a reaction time of 60 min at 22° C. The concentration of Akt2 in the assay was adjusted depending of the activity of the enzyme lot and was chosen appropriate to have the assay in the linear range, typical enzyme concentrations were in the range of about 0.2 ng/μl (final conc. in the 5 μl assay volume). The reaction was stopped by the addition of 5 μl of a solution of HTRF detection reagents (200 nM streptavidine-XL665 [Cisbio] and 1.5 nM anti-phosho-Serine antibody [Millipore, cat. #35-001] and 0.75 nM LANCE Eu-W 1024 labeled anti-mouse IgG antibody [Perkin Elmer]) in an aqueous EDTA-solution (100 mM EDTA, 0.1% (w/v) bovine serum albumin in 50 mM HEPES/NaOH pH 7.5). The resulting mixture was incubated 1 h at 22° C. to allow the binding of the biotinylated phosphorylated peptide to the streptavidine-XL665 and the antibodies.
RAC-beta serine/threonine-protein kinase, sequence (P31751 whole entry): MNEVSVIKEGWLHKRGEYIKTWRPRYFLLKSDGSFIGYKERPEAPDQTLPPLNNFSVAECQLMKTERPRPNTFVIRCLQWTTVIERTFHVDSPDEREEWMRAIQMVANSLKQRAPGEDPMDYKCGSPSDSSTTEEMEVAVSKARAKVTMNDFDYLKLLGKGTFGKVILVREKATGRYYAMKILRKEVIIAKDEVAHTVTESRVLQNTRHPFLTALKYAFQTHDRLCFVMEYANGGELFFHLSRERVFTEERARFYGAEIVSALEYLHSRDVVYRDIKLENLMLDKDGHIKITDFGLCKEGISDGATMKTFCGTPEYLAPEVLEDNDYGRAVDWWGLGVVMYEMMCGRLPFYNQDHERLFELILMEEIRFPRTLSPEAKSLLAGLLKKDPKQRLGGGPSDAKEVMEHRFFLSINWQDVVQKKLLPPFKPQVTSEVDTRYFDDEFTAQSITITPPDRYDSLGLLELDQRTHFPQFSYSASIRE

[2] = target: RAC-alpha serine/threonine-protein kinase (Homo sapiens, UniProt P31749); assay: Kinase Assay: For the assay 50 nl of a 100 fold concentrated solution of the test compound in DMSO was pipetted into a black low volume 384 well microtiter plate (Greiner Bio-One, Frickenhausen, Germany), 2 μl of a solution of Akt1 in assay buffer [50 mM TRIS/HCl pH 7.5, 5 mM MgCl2, 1 mM dithiothreitol, 0.02% (v/v) Triton X-100 (Sigma)] were added and the mixture was incubated for 15 min at 22° C. to allow pre-binding of the test compounds to the enzyme before the start of the kinase reaction. Then the kinase reaction was started by the addition of 3 μl of a solution of adenosine-tri-phosphate (ATP, 16.7 μM=>final conc. in the 5 μl assay volume is 10 μM) and substrate (1.67 μM=>final conc. in the 5 μl assay volume is 1 μM) in assay buffer and the resulting mixture was incubated for a reaction time of 60 min at 22° C. The concentration of Akt1 in the assay was adjusted depending of the activity of the enzyme lot and was chosen appropriate to have the assay in the linear range, typical enzyme concentrations were in the range of about 0.05 ng/μl (final conc. in the 5 μl assay volume). The reaction was stopped by the addition of 5 μl of a solution of HTRF detection reagents (200 nM streptavidine-XL665 [Cisbio] and 1.5 nM anti-phosho-Serine antibody [Millipore, cat. #35-001] and 0.75 nM LANCE Eu-W 1024 labeled anti-mouse IgG antibody [Perkin Elmer]) in an aqueous EDTA-solution (100 mM EDTA, 0.1% (w/v) bovine serum albumin in 50 mM HEPES/NaOH pH 7.5). The resulting mixture was incubated 1 h at 22° C. to allow the binding of the biotinylated phosphorylated peptide to the streptavidine-XL665 and the antibodies. Subsequently the amount of phosphorylated substrate was evaluated by measurement of the resonance energy transfer from the anti-mouse-IgG-Eu-Chelate to the streptavidine-XL665. Therefore, the fluorescence emissions at 620 nm and 665 nm after excitation at 350 nm was measured in a HTRF reader, e.g. a Rubystar (BMG Labtechnologies, Offenburg, Germany) or a Viewlux (Perkin-Elmer).
RAC-alpha serine/threonine-protein kinase, sequence (P31749 whole entry): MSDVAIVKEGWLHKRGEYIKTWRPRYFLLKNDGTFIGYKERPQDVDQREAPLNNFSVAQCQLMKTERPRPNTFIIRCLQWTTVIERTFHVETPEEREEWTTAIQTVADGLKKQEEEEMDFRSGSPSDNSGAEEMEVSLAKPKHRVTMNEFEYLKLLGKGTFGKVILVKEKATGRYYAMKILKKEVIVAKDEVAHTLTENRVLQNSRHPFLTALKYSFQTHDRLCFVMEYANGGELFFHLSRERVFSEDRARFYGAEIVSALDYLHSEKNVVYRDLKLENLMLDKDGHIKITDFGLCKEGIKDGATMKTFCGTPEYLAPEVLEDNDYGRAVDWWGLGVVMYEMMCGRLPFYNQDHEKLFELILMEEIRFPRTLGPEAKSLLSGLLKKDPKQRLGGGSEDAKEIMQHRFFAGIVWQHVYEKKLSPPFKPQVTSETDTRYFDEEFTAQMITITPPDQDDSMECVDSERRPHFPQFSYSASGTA

| pIC50 [1] | pIC50 [2] | Compound |
| --- | --- | --- |
| 6.96 | 7.19 | NC(=O)c1ccnn2c(-c3ccccc3)c(-c3ccc(C4(N)CCC4)cc3)nc12 |
| 7.15 | 6.92 | NC1(c2ccc(-c3nc4ccc(C(F)(F)F)nn4c3-c3ccccc3)cc2)CCC1 |
| 7.25 | 7.35 | CCOc1nn2c(-c3ccccc3)c(-c3ccc(C4(N)CCC4)cc3)nc2c(C)c1C |
